Results taken from ChEMBL document CHEMBL3991601, “The target landscape of clinical kinase drugs” (Science, 2017).
Active and inactive are the calls of the source.

What was measured:
[1] = molecular target: T1, Eukaryotic translation initiation factor 5B (Homo sapiens, UniProt O60841)
T1 sequence (O60841 whole entry): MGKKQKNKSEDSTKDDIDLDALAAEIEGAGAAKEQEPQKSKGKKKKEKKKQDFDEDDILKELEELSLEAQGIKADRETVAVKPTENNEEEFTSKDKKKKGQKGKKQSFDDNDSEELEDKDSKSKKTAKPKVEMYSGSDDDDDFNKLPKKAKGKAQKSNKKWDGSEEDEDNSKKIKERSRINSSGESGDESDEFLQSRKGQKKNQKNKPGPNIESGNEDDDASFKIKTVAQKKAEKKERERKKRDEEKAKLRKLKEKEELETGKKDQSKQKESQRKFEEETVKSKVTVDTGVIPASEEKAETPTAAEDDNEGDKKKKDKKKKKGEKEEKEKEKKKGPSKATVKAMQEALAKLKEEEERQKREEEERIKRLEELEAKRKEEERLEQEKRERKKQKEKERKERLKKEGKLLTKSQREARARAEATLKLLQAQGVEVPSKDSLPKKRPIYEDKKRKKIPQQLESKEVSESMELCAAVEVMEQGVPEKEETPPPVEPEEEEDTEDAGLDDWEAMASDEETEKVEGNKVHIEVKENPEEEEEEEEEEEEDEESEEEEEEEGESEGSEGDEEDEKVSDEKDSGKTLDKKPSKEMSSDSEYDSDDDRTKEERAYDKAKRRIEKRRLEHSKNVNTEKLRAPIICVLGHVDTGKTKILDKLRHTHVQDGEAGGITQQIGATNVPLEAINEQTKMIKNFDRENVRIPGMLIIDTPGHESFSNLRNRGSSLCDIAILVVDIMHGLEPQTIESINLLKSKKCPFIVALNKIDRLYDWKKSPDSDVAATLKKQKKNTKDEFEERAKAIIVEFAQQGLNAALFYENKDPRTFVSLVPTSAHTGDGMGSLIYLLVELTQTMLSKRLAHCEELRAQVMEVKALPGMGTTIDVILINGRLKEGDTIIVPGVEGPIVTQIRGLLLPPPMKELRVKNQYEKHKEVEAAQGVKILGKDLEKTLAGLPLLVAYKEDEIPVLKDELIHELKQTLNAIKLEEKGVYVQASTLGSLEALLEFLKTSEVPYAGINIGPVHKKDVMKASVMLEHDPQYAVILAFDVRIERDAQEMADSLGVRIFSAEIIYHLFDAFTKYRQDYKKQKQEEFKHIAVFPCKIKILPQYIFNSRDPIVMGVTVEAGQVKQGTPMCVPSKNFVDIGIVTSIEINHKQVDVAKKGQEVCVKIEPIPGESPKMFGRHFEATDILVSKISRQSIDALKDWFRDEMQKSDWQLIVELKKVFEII

[2] = molecular target: T2, MAP kinase-activated protein kinase 5 (Homo sapiens, UniProt Q8IW41)
T2 sequence (Q8IW41 whole entry): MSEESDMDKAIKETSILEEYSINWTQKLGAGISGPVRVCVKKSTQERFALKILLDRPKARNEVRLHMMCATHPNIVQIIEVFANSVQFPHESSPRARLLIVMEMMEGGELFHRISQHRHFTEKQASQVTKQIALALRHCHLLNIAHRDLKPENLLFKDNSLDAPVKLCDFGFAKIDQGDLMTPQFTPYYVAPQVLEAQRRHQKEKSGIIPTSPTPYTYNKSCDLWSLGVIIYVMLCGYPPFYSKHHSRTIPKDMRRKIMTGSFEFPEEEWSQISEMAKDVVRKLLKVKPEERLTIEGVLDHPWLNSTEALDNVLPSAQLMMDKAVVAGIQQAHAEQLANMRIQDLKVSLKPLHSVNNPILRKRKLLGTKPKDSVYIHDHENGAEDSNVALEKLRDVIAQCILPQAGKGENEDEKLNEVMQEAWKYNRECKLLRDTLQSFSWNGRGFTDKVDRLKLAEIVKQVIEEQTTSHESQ

[3] = molecular target: Phosphatidylethanolamine-binding protein 1 (Homo sapiens, UniProt P30086)
[4] = molecular target: T3, Phosphatidylinositol 5-phosphate 4-kinase type-2 gamma (Homo sapiens, UniProt Q8TBX8)
T3 sequence (Q8TBX8 whole entry): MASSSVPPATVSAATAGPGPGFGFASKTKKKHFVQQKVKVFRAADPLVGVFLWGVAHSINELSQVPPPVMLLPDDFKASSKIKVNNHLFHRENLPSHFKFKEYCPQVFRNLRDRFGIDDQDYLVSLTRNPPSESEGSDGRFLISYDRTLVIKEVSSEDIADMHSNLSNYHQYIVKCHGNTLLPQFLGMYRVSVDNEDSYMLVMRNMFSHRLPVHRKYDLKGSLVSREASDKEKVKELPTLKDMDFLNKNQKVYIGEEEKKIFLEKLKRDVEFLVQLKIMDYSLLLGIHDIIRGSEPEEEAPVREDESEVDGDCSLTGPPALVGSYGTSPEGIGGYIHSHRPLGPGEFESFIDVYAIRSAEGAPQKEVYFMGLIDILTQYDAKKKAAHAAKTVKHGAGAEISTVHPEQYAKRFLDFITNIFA

[5] = molecular target: T4, Rab-like protein 3 (Homo sapiens, UniProt Q5HYI8)
T4 sequence (Q5HYI8 whole entry): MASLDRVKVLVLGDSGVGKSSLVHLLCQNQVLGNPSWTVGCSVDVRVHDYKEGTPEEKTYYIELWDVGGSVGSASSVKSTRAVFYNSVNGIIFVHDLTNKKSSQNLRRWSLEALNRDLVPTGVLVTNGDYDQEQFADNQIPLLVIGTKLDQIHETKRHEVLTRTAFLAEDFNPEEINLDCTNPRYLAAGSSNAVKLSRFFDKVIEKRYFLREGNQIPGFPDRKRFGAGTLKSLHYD

[6] = molecular target: Proto-oncogene tyrosine-protein kinase Src (Homo sapiens, UniProt P12931)
[7] = molecular target: T5, TGF-beta receptor type-1 (Homo sapiens, UniProt P36897)
T5 sequence (P36897 whole entry): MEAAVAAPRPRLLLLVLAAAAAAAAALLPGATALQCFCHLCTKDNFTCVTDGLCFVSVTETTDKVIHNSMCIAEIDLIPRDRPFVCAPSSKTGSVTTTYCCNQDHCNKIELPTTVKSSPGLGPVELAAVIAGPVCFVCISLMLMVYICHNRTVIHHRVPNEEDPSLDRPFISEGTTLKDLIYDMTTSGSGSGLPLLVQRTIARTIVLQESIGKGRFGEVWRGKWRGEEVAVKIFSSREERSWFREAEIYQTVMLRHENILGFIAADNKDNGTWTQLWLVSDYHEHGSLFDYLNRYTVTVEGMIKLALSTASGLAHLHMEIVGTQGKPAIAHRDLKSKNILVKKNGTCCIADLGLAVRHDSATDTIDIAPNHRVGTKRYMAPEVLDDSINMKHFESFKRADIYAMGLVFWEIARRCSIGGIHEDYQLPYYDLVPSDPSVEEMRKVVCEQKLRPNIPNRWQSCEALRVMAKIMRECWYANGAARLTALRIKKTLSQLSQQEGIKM

Measured: Kd
Also: in the data inactive means no Kd found up to 30 µM.

Chain of Phosphatidylethanolamine-binding protein 1 (P30086 whole entry): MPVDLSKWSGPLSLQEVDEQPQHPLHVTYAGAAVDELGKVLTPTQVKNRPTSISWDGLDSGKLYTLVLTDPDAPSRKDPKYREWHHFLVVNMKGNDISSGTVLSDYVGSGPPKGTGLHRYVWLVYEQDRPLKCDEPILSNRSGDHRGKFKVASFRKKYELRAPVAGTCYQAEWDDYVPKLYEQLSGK
Chain of Proto-oncogene tyrosine-protein kinase Src (P12931 2-536 limits assumed): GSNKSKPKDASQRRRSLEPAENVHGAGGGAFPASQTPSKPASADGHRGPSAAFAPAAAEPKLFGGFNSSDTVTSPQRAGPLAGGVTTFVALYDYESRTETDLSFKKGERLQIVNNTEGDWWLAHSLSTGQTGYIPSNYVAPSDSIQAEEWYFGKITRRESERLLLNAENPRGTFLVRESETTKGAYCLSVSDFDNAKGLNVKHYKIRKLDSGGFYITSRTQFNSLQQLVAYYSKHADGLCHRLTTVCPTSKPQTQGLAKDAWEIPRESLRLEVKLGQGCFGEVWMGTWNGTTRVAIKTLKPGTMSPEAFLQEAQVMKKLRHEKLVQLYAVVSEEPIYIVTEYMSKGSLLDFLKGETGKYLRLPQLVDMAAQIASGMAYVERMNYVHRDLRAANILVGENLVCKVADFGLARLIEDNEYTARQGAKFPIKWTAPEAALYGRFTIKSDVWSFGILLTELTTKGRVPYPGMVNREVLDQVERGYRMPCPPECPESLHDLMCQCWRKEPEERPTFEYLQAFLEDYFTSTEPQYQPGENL

Cc1cc(Nc2ncnc3ccc(NC4=NC(C)(C)CO4)cc23)ccc1Oc1ccn2ncnc2c1 [TUCATINIB]
inactive: [1] > 30 µM | [2] > 30 µM | [3] > 30 µM | [4] > 30 µM | [5] > 30 µM | [6] > 30 µM | [7] > 30 µM

C[C@@H](N)c1ccc(C(=O)Nc2ccnc3[nH]ccc23)cc1 [Y-39983]
inactive: [1] > 30 µM | [2] > 30 µM | [3] > 30 µM | [4] > 30 µM | [5] > 30 µM | [6] > 30 µM | [7] > 30 µM

CN1C/C=C/CCOc2cccc(c2)-c2ccnc(n2)Nc2cccc(c2)C1 [ZOTIRACICLIB]
inactive: [1] > 30 µM | [2] > 30 µM | [3] > 30 µM | [4] > 30 µM | [5] > 30 µM | [6] > 30 µM | [7] > 30 µM
